In brackets after ≈: the same amount, converted by molar mass. Structures can show the parent of a compound that is named as a salt.
What was measured:
Assay in all cases: In vitro antibacterial activity, MIC by agar dilution
Assay type in all cases: cell-based
Conditions in all cases: BHI agar, 35-37°C, 20-24 hours, unit assumed
[1] = test system: Staphylococcus aureus A5177
Summary of the method: (§1)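 Using a Steers replicator, about 10^4 CFU of each diluted organism were spotted on agar with test compound. After ~20–24 h at 35–37°C, MIC was taken as the lowest concentration without growth compared with compound-free BHI agar; ciprofloxacin served as reference antibiotic.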

[2] = test system: Staphylococcus aureus 642A
Summary of the method: as §1

Escherichia coli SS = test system: Escherichia coli SS
Summary of the method: as §1

[3] = test system: Pseudomonas aeruginosa A5007
Summary of the method: as §1

[4] = test system: Staphylococcus epidermidis 3519
Summary of the method: as §1

[5] = test system: Staphylococcus aureus CMX 553
Summary of the method: as §1

[6] = test system: Streptococcus pyrogenes EES61
Summary of the method: as §1

[7] = test system: Klebsiella pneumoniae ATCC 8045
Summary of the method: as §1

[8] = test system: Micrococcus luteus ATCC 9341
Summary of the method: as §1

[9] = test system: Pseudomonas aeruginosa BMH10
Summary of the method: as §1

[10] = test system: Pseudomonas aeruginosa 2862
Summary of the method: as §1

Pseudomonas cepacia 296I = test system: Pseudomonas cepacia 296I
Summary of the method: as §1

[11] = test system: Pseudomonas aeruginosa 5263
Summary of the method: as §1

[12] = test system: Staphylococcus aureus NCTC 10649
Summary of the method: as §1

[13] = test system: Staphylococcus aureus ATCC 6538P
Summary of the method: as §1

Escherichia coli H560 = test system: Escherichia coli H560
Summary of the method: as §1

[14] = test system: Pseudomonas aeruginosa K799/61
Summary of the method: as §1

[15] = test system: Enterococcus faecium ATCC 8043
Summary of the method: as §1

[16] = test system: Streptococcus pyrogenes CONST
Summary of the method: as §1

[17] = test system: Streptococcus agalactaciae CMX 508
Summary of the method: as §1

Escherichia coli KNK 437 = test system: Escherichia coli KNK 437
Summary of the method: as §1

[18] = test system: Staphylococcus aureus A-5278
Summary of the method: as §1

Escherichia coli JUHL = test system: Escherichia coli JUHL
Summary of the method: as §1

[19] = test system: Micrococcus luteus ATCC 4698
Summary of the method: as §1

[20] = test system: Staphylococcus aureus 1775
Summary of the method: as §1

[21] = test system: Providencia stuartii CMX 640
Summary of the method: as §1

[22] = test system: Enterobacter aerogenes ATCC 13048
Summary of the method: as §1

[23] = test system: Streptococcus pyrogenes 2548 INDUC
Summary of the method: as §1

[24] = test system: Pseudomonas aeruginosa K799/WT
Summary of the method: as §1

Escherichia coli DC-2 = test system: Escherichia coli DC-2
Summary of the method: as §1

[25] = test system: Streptococcus bovis A5169
Summary of the method: as §1

[26] = test system: Acinetobacter calcoaceticus CMX 669
Summary of the method: as §1

Row | SMILES | MIC values [1] [µg/mL] | MIC values [2] [µg/mL] | MIC values (Escherichia coli SS) [µg/mL] | MIC values [3] [µg/mL] | MIC values [4] [µg/mL] | MIC values [5] [µg/mL] | MIC values [6] [µg/mL] | MIC values [7] [µg/mL] | MIC values [8] [µg/mL] | MIC values [9] [µg/mL] | MIC values [10] [µg/mL] | MIC values (Pseudomonas cepacia 296I) [µg/mL] | MIC values [11] [µg/mL] | MIC values [12] [µg/mL] | MIC values [13] [µg/mL] | MIC values (Escherichia coli H560) [µg/mL] | MIC values [14] [µg/mL] | MIC values [15] [µg/mL] | MIC values [16] [µg/mL] | MIC values [17] [µg/mL] | further results
1 | CN1CCN(c2nc3c(C4CC4)cc(C(=O)O)c(=O)n3cc2F)CC1 [Example 163, 9-Cyclopropyl-3-fluoro-2-(4-methylpiperazin-1-yl)-6H-6-oxo-pyrido[1,2-a]pyrimidine-7-carboxylic acid] | 1.56 (≈ 4.5 µM) | 1.56 (≈ 4.5 µM) | 0.1 (≈ 0.289 µM) | 3.1 (≈ 8.95 µM) | 1.56 (≈ 4.5 µM) | 1.56 (≈ 4.5 µM) | 12.5 (≈ 36.1 µM) | 0.1 (≈ 0.289 µM) | 25 (≈ 72.2 µM) | 1.56 (≈ 4.5 µM) | > 100 | 12.5 (≈ 36.1 µM) | 100 (≈ 289 µM) | 0.78 (≈ 2.25 µM) | 1.56 (≈ 4.5 µM) | 0.1 (≈ 0.289 µM) | 1.56 (≈ 4.5 µM) | 12.5 (≈ 36.1 µM) | 12.5 (≈ 36.1 µM) | 12.5 (≈ 36.1 µM) | MIC values (Escherichia coli KNK 437): 3.1 µg/mL (≈ 8.95 µM); MIC values [18]: 1.56 µg/mL (≈ 4.5 µM); MIC values (Escherichia coli JUHL): 0.2 µg/mL (≈ 0.577 µM); MIC values [19]: 12.5 µg/mL (≈ 36.1 µM); MIC values [20]: 100 µg/mL (≈ 289 µM); MIC values [21]: 50 µg/mL (≈ 144 µM); MIC values [22]: 0.39 µg/mL (≈ 1.13 µM); MIC values [23]: 12.5 µg/mL (≈ 36.1 µM); MIC values [24]: 3.1 µg/mL (≈ 8.95 µM); MIC values (Escherichia coli DC-2): 6.2 µg/mL (≈ 17.9 µM); MIC values [25]: 50 µg/mL (≈ 144 µM); MIC values [26]: 0.39 µg/mL (≈ 1.13 µM)
2 | O=C(O)c1cc(C2CC2)c2nc(N3CCNCC3)c(F)cn2c1=O [Example 164, 9-Cyclopropyl-3-fluoro-2-(piperazin-1-yl)-6H-6-oxo-pyrido[1,2-a]pyrimidine-7-carboxylic acid] | 1.56 (≈ 4.69 µM) | 1.56 (≈ 4.69 µM) | 0.02 (≈ 0.0602 µM) | 0.39 (≈ 1.17 µM) | 1.56 (≈ 4.69 µM) | 1.56 (≈ 4.69 µM) | 12.5 (≈ 37.6 µM) | 0.05 (≈ 0.15 µM) | 12.5 (≈ 37.6 µM) | 0.39 (≈ 1.17 µM) | 100 (≈ 301 µM) | 3.1 (≈ 9.33 µM) | 100 (≈ 301 µM) | 1.56 (≈ 4.69 µM) | 0.78 (≈ 2.35 µM) | 0.1 (≈ 0.301 µM) | 0.1 (≈ 0.301 µM) | 12.5 (≈ 37.6 µM) | 12.5 (≈ 37.6 µM) | 12.5 (≈ 37.6 µM) | MIC values (Escherichia coli KNK 437): 1.56 µg/mL (≈ 4.69 µM); MIC values [18]: 1.56 µg/mL (≈ 4.69 µM); MIC values (Escherichia coli JUHL): 0.05 µg/mL (≈ 0.15 µM); MIC values [19]: 6.2 µg/mL (≈ 18.7 µM); MIC values [20]: 50 µg/mL (≈ 150 µM); MIC values [21]: 12.5 µg/mL (≈ 37.6 µM); MIC values [22]: 0.05 µg/mL (≈ 0.15 µM); MIC values [23]: 12.5 µg/mL (≈ 37.6 µM); MIC values [24]: 0.39 µg/mL (≈ 1.17 µM); MIC values (Escherichia coli DC-2): 1.56 µg/mL (≈ 4.69 µM); MIC values [25]: 12.5 µg/mL (≈ 37.6 µM); MIC values [26]: 0.39 µg/mL (≈ 1.17 µM)
3 | NC1CCN(c2nc3c(-c4c(F)c(F)c(F)c(F)c4F)cc(C(=O)O)c(=O)n3cc2F)C1 (centres unmarked) [Example 172, 2-(3-Aminopyrrolidin-1-yl)-3-fluoro-9-(2,3,4,5,6-pentafluorophenyl)-6H-6-oxopyrido[1,2-a]pyrimidine-7-carboxylic acid hydrochloride salt] | 100 | 100 | 0.39 | 50 | 50 | > 100 | > 100 | 3.1 | > 100 | 50 | > 100 | > 100 | > 100 | 50 | 50 | 6.2 | 6.2 | > 100 | > 100 | > 100 | MIC values (Escherichia coli KNK 437): > 100 µg/mL; MIC values [18]: 50 µg/mL; MIC values (Escherichia coli JUHL): 6.2 µg/mL; MIC values [19]: > 100 µg/mL; MIC values [20]: > 100 µg/mL; MIC values [21]: > 100 µg/mL; MIC values [22]: 6.2 µg/mL; MIC values [23]: > 100 µg/mL; MIC values [24]: 100 µg/mL; MIC values (Escherichia coli DC-2): > 100 µg/mL; MIC values [25]: > 100 µg/mL; MIC values [26]: 25 µg/mL
4 | C[C@H](N)C(=O)N[C@@H](C)C(=O)N[C@H]1C[C@H](C)N(c2nc3c(-c4ccc(F)cc4F)cc(C(=O)O)c(=O)n3cc2F)C1 [Example 173, 2-((2S, 4S)-4-(N-(S)-Alanyl-(S)-alanyl)amino-2-methylpyrrolidin-1-yl)-9-(2,4-difluorophenyl)-3-fluoro-6H-6-oxopyrido[1,2-a]pyrimidine-7-carboxylic acid hydrochloride] | 6.2 | 12.5 | 0.1 | 50 | 6.2 | 12.5 | 12.5 | 3.1 | > 100 | 50 | > 100 | > 100 | > 100 | 1.56 | 1.56 | 3.1 | 3.1 | 50 | 12.5 | 12.5 | MIC values (Escherichia coli KNK 437): 100 µg/mL; MIC values [18]: 6.2 µg/mL; MIC values (Escherichia coli JUHL): 6.2 µg/mL; MIC values [19]: 100 µg/mL; MIC values [20]: > 100 µg/mL; MIC values [21]: > 100 µg/mL; MIC values [22]: 25 µg/mL; MIC values [23]: 6.2 µg/mL; MIC values [24]: 100 µg/mL; MIC values (Escherichia coli DC-2): > 100 µg/mL; MIC values [25]: 25 µg/mL; MIC values [26]: 25 µg/mL

Source: patent EP0527889B1, “QUINOLIZINONE TYPE COMPOUNDS” (priority 1990, dated 1991)
